Data published in patent US20180238860A1, “INDIVIDUAL METHOD PREDICTIVE OF THE DNA-BREAKING GENOTOXIC EFFECTS OF CHEMICAL OR BIOCHEMICAL AGENTS” (priority 2015, published 2018).

Columns and labels:
Assay type in all cases: cell-based, human
[1] = test system: GM02718 cells; test: pH2AX foci immunofluorescence 24 h after contacting, GM02718 cell line; settings: for pH2AX(24 h) + 2xSEM / pH2AX(24 h): GM002718; for pH2AX(24 h): 24 hours after contacting
Method: (§1) the cells are fixed in 3% paraformaldehyde and 2% sucrose for 15 minutes at ambient temperature and permeabilized in 20 mM HEPES buffer solution (4-(2-hydroxyethyl)-1-piperazine ethane sulfonic acid) at pH 7.4, 50 mM NaCl, 3 mM MgCl2, 300 mM sucrose, 0.5% Triton X-100 (a non-ionic surfactant having the formula t-Oct-C6H4-(OCH2CH2)×OH where x=9-10, CAS No. 9002-93-1, supplied for example by Sigma Aldrich) for 3 minutes. The glass coverslips are then washed in phosphate buffer saline (known as the acronym PBS) before immunological staining. The incubation took place for 40 min at 37° C. in PBS supplemented with 2% bovine serum albumin (known as the acronym BSA or fraction V, supplied for example by Sigma Aldrich) and was followed by a wash with PBS. Anti-pH2AX primary antibodies are used at a concentration of 1:800. The incubations with anti-mouse FITC or anti-rabbit TRITC secondary antibodies (1:100, supplied by Sigma Aldrich) were performed at 37° C. in 2% BSA for 20 minutes. Glass coverslips were treated with Vectashield™ containing DAPI (4,6-Diamidino-2-phenylindole) to label the nucleus. Staining with DAPI also makes it possible, indirectly, to determine the number of cells in phase G1 (nuclei with homogenous DAPI staining), in phase S (nuclei with numerous pH2AX foci), in phase G2 (nuclei with heterogeneous DAPI staining) and metaphases (visible chromosomes).
The cell line GM02718 was amplified according to the recommendations of the supplier (Coriell Institute) until the number of cells sought was obtained.
(§2) After obtaining a sufficient number of cells (generally after one to 3 weeks), the first experiments were conducted using the process according to the invention. The GM02718, or 03HLS, line cells were inoculated on glass coverslips in Petri dishes. A portion of these coverslips was then contacted with 5FU at a concentration of 30 μM. By way of verification, a further portion of these coverslips was contacted with 5FU at a given concentration (see table 2, see FIG. 2 (B) for the cell line GM02718, respectively FIG. 2 (C) for the cell line 03HLS).
(§3) After contacting with 5FU at a given concentration, the cells were stored in the culture incubator at 37° C. 24 hours after contacting with 5FU at a given concentration as presented in table 2, the mean number of nuclear foci obtained with the marker pH2AX was acquired. The acquisition of the results was carried out using these coverslips on an immunofluorescence microscope (Olympus model). The reading was performed directly by counting the foci obtained with the marker pH2AX on at least 50 cells in G0/G1 for each point or using dedicated image analysis software (imageJ).
(§4) In order to obtain results of sufficient statistical reliability to serve as a basis for diagnosis, 3 independent series of experiments were performed. The mean and standard errors of the mean (“SEM” or σ) of each of the numbers of foci acquired after 24 hours of contacting the control cells with 5FU at a given concentration was calculated and presented in table 2 and in FIG. 2 (B) for the cell line GM02718, respectively FIG. 2 (C) for the cell line 03HLS.

[2] = test system: 03HLS cells; test: pH2AX foci immunofluorescence 24 h after contacting, 03HLS patient skin cell line; settings: for pH2AX(24 h): 24 hours after contacting
Method: as §1
For the line 03 HLS, a skin cell sample from a patient was sampled by biopsy via the “skin punch” method known to those skilled in the art. The cell sample was then placed in DMEM medium+20% sterile fetal calf serum. The cell sample was then transferred without delay to a specialized laboratory, so that the sample remained not more than 38 hours at ambient temperature.
On receipt, the cell sample from the biopsy was established in the form of an amplifiable 03HLS cell line according to a procedure well known to culture laboratories and those skilled in the art: using particularly the trypsin dispersion, the cells are once again diluted in replenished medium and so on until the number of cells sought is obtained.
as §2, §3, §4

[3] = test system: MRC9 (control cells); test: pH2AX foci immunofluorescence 24 h after contacting, MRC9 control fibroblasts; settings: for pH2AX(24 h) + 2xSEM / pH2AX(24 h): MRC9; for pH2AX(24 h): 24 hours after contacting
Method: as §1
Commercial MRC9 control fibroblasts were amplified according to the recommendations of the supplier (SIGMA-ALDRICH) until the number of cells sought was obtained. After obtaining a sufficient number of cells (generally after one to 3 weeks), the first experiments were conducted using the process according to the invention. The cells were inoculated on glass coverslips in Petri dishes. A portion of these coverslips was then contacted with the medium under test comprising 5FU at a given concentration presented in table 2 hereinafter.
as §3
In order to obtain results of sufficient statistical reliability to serve as a basis for diagnosis, 3 independent series of experiments were performed. The mean and standard errors of the mean (“SEM” or σ) of each of the numbers of foci acquired after 24 hours of contacting the control cells with 5FU at a given concentration was calculated and presented in table 2.

[4] = test system: HMEC cells; test: Micronuclei per 100 cells 24 h after contacting, Table 4 lower part (HMEC); settings: line cell blank (below Hasp)
Method: (§5) In one embodiment, on receipt, the tissue sample (typically the biopsy) is established in the form of an amplifiable cell line without a viral or chemical transformation agent according to an ancillary procedure well known to culture laboratories, as underlined by the publication of Elkind et al. “The radiobiology of cultured mammalian cell”, Gordon and Breach (1967). Once the number of cells is sufficient (typically after 1 to 3 weeks), the first experiments are carried out using the process according to the invention. A cell sample is prepared: The cells are inoculated on glass coverslips in Petri dishes. A portion of these coverslips are contaminated with metals or pesticides or any other DNA-breaking chemical or biochemical agent at different concentrations. A further portion is not contaminated; it represents the spontaneous state. During contamination, the cells remain in the culture incubator at 37° C.
as §1
Counterstaining with DAPI (a DNA marker known to those skilled in the art) makes it possible to locate the nucleus to situate the cytoplasmic or nuclear location to quantify the micronuclei, which are complementary cell markers to the data on the foci.
(§6) The tables hereinafter summarize the results of numerous experiments which were carried out as described in the “Detailed description” section above.
(§7) In tables 3 and 4, “pH2AX” corresponds to the mean number of nuclear foci obtained with the marker pH2AX, 24 hours after contacting the cell sample with the chemical agent at the concentration C (NpH2AX(24 h, C)), and where “Micronuclei” corresponds to the mean number of micronuclei observed per 100 cells 24 hours after contacting the cell sample with the chemical agent at the concentration C(NMN(24 h, C)).

[5] = test system: HMEC cells; test: pH2AX foci 24 h after contacting, Table 4 lower part (HMEC endothelial cells); settings: line cell blank (below Hasp), 24 hours after contacting
Method: as §5
For the contaminated cells, characteristics are acquired corresponding to the state after an incubation time with the DNA-breaking chemical or biochemical agent. Said characteristics are represented by foci corresponding to the marker pH2AX. The cells on glass coverslips are then fixed, lysed and hybridized. The following procedure, known per se (Bodgi et al, “A single formula to describe radiation-induced protein relocalization: towards a mathematical definition of individual radiosensitivity”, J Theor Biol. 21 p 333:135-45.2013):
as §1
The results are acquired using these coverslips on an immunofluorescence microscope (Olympus model for example). The reading may be direct (typically by counting the foci on at least 50 cells in G0/G1 for each point) or using dedicated image analysis software, or on an automated microscope; preferably the software or automated microscope methods are calibrated with manual determinations.
as §6, §7

[6] = test system: pH2AX nuclear foci (DNA double-strand breaks); test: Single toxicity scale: reference concentration Cref and risk group prediction from NpH2AX(24 h)
Method: (i) if the reference concentration has not previously been determined by the chemical or biochemical agent to be studied, a cell sample is prepared by dispersion and/or amplification of so-called reference cells (sensitivity group I); a plurality of concentrations within a broad concentration range of said breaking agent (said concentration range ranging for example from nM to mM) is applied for a predetermined period of time (preferably 24 hours) on this cell sample; pH2AX immunofluorescence is performed with DAPI counterstaining which also enables on the same cell sample the analysis of micronuclei for all the concentrations applied.
(ii) Either the mean number of nuclear foci observed with the marker pH2AX at the observation times t and at the concentration C (this mean number being referred to as NpH2AX(t, C)), or the mean number of micronuclei per 100 cells at the observation times t and at the concentration C (this mean number being referred to as NMN(t, C)), or the standard error a corresponding to the error committed on these respective measurements which must be performed on at least 50 nuclei once (Gaussian standard error) or 3 independent experiments of 50 nuclei (standard error of the mean).
(iii) The so-called reference concentration Cref is the concentration giving:
NpH2AX(24 h,Cref)+2σ=2 or indeed NMN(24 h,Cref)+2σ=2%;
If for the cell sample NpH2AX(24 h, Cref)<=2 or NMN(24 h, Cref)<=0.5%, preferably NMN(24 h, Cref)<=1% or even more preferentially NMN(24 h, Cref)<=2%, then the genotoxic risk is considered to be low or described as “Group I”
The experimental data presented in table 4 above were used to determine the reference concentration Cref particularly for Pb(NO3)2 (Cref<1 μM) and CdCl2 (Cref=10 μM).
Table 5 presents numerical examples of correspondence between the single toxicity scale according to the invention and the corresponding clinical signs.

## O=c1[nH]cc(F)c(=O)[nH]1 [5FU]
[1]; 5FU 1.00 μM
  pH2AX(24 h) + 2xSEM: 3.32 foci
  pH2AX(24 h): 2.70 foci
[1]; 5FU 3.00 μM
  pH2AX(24 h) + 2xSEM: 2.43 foci
  pH2AX(24 h): 2.41 foci
[1]; 5FU 10.00 μM
  pH2AX(24 h) + 2xSEM: 3.87 foci
  pH2AX(24 h): 2.96 foci
[1]; 5FU 30.00 μM
  pH2AX(24 h) + 2xSEM: 2.38 foci
  pH2AX(24 h): 2.38 foci
[1]; GM02718, 5FU concentration of 30 μM, 24 h
  number of pH2AX foci: approximately 2.38 foci
[1]; cell line GM02718 at Cref 30 μM
  genotoxic risk group: group II
[2]; 03HLS, 5FU 1.00 μM
  pH2AX(24 h) + 2xSEM: 1.49 foci
  pH2AX(24 h): 1.40 foci
[2]; 03HLS, 5FU 3.00 μM
  pH2AX(24 h) + 2xSEM: 2.26 foci
  pH2AX(24 h): 1.69 foci
[2]; 03HLS, 5FU 10.00 μM
  pH2AX(24 h) + 2xSEM: 1.69 foci
  pH2AX(24 h): 1.63 foci
[2]; 03HLS, 5FU 30.00 μM
  pH2AX(24 h) + 2xSEM: 2.59 foci
  pH2AX(24 h): 2.00 foci
[2]; 03HLS, 5FU concentration of 30 μM, 24 h
  number of pH2AX foci: ~2.59 foci
[2]; cell line 03HLS at Cref 30 μM
  genotoxic risk group: group II
[3]; 5FU 1.00 μM
  pH2AX(24 h) + 2xSEM: 1.97 foci
  pH2AX(24 h): 1.16 foci
[3]; 5FU 3.00 μM
  pH2AX(24 h) + 2xSEM: 1.93 foci
  pH2AX(24 h): 1.38 foci
[3]; 5FU 10.00 μM
  pH2AX(24 h) + 2xSEM: 0.51 foci
  pH2AX(24 h): 0.30 foci
[3]; 5FU 30.00 μM
  pH2AX(24 h) + 2xSEM: 2.01 foci
  pH2AX(24 h): 1.18 foci
[3]; control cell line MRC9
  reference concentration Cref defined by NpH2AX(24 h, Cref)+2σ=2: 30 µM

## [Cl][Cd][Cl] [CdCl2]
[4]; 10 μM
  Micronuclei: 3.5 per 100 cells
[4]; 30 μM
  Micronuclei: 9 per 100 cells
[4]; 100 μM
  Micronuclei: 12.25 per 100 cells
[5]; 10 μM
  pH2AX: 1.9 foci
[5]; 30 μM
  pH2AX: 3.7 foci
[5]; 100 μM
  pH2AX: 8.3 foci
[6]; NpH2AX(24 h) < 2, determined from data of table 4
  Reference concentration Cref: 10 µM
[6]; NpH2AX(24 h) > 8
  Prediction based on algorithm: concentration above which “Group III” risk: predicted above 100 μM
